# Reference: US20200062705A1, “NOVEL CRYSTALLINE FORMS” (Biogen MA Inc., priority 2017, published 2020)
# Columns and labels:
# Type in all cases: physicochemical
# [1] = Powder bulk density analysis (ring shear tester); details: for Initial Density: initial bulk density, corresponds to x = 0 in FIG. 21, mass of powder normalized by volume of the cell; for Density results (Table 21 and FIG. 21) compared with the product of Route D (E12): initial density and density at varying stresses, higher density = more ideal packing
# Excerpt: Solid forms prepared according to the procedures described for Routes D, E, and F (Examples 12-14, respectively) were subjected to powder bulk density analysis in accordance with the following procedure.
# A ring shear tester (RST-XS.s, Dietmar Schulze, Wolfenbüttel, Germany) with RST CONTROL 95 software was used for the bulk density analysis. For this analysis, Low-Stress Shear Cell, XS-Lr0, bottom ring was over-filled with small portions of powder using a spatula. The excess powder was removed by gently scraping off the powder with the spatula until the powder was flush with the top of the ring. The bottom ring was weighed and the total mass was entered. When prompted the shear cell lid was attached to the loading rod and the filled bottom ring placed on the driving axle for the test. The initial bulk density was calculated by the control software from the mass of powder normalized by the volume of the cell. During the shear test, 5 preshear normal stresses, 0.1, 0.2, 0.3, 0.4, and 0.5 kPa were applied to the powder before it was sheared until steady state was achieved. At each preshear normal stress, the powder was sheared to failure at 5 increasing normal stresses between 0 and the preshear normal stress to generate corresponding shear stresses at failure. A yield locus was generated by applying a linear regression to the shear stresses as a function of the normal stress plot. The Major Principal Stress (x-axis) was the maximum value obtained when a Mohr's circle was drawn through the preshear normal stress and tangential to the yield locus. The volume of powder at each steady state was determined from the change in height of the lid and, together with the initial powder mass, used to calculate the powder bulk densities (y-axis).
# [2] = Powder flow function analysis (ring shear tester); details: FIG. 22; lower flow function curve = good flow
# Excerpt: Solid forms prepared according to the procedures described for Routes D, E, and F (Examples 12-14, respectively) were subjected to powder flow function analysis in accordance with the following procedure:
# A ring shear tester (RST-XS.s, Dietmar Schulze, Wolfenbüttel, Germany) with RST CONTROL 95 software was used for the flow function analysis. For this analysis, Low-Stress Shear Cell, XS-Lr0, bottom ring was over-filled with small portions of powder using a spatula. The excess powder was removed by gently scraping off the powder with the spatula until the powder was flush with the top of the ring. The bottom ring was weighed and the total mass was entered. When prompted the shear cell lid was attached to the loading rod and the filled bottom ring placed on the driving axle for the test. To obtain a flow function, 5 yield loci were determined using the “Stress Walk” function in the control software. During the shear test, 5 preshear normal stresses, 0.1, 0.2, 0.3, 0.4, and 0.5 kPa were applied to the powder to generate the 5 yield loci. At each preshear normal stress, the powder was sheared to failure at 5 equally-spaced normal stresses between 0 and the preshear normal stress to generate corresponding shear stresses at failure. Each yield locus was derived by applying a linear regression to the shear stresses as a function of the normal stress plot. […]
# [3] = Powder time consolidation behavior analysis (ring shear tester); details: FIG. 23; 0 hrs vs 12 hrs storage, x=250 Pa
# Excerpt: Solid forms prepared according to the procedures described for Routes E and F (Examples 13 and 14, respectively) were subjected to powder time consolidation behavior analysis in accordance with the following procedure.
# A ring shear tester (RST-XS.s, Dietmar Schulze, Wolfenbüttel, Germany) with RST CONTROL 95 software was used for the flow function analysis. For this analysis, Low-Stress Shear Cell, XS-Lr0, bottom ring was over-filled with small portions of powder using a spatula. The excess powder was removed by gently scraping off the powder with the spatula until the powder was flush with the top of the ring. The bottom ring was weighed and the total mass was entered. When prompted the shear cell lid was attached to the loading rod and the filled bottom ring placed on the driving axle for the test. For the time consolidation test, a yield locus was first obtained by applying a 0.1 kPa preshear stress and 5 normal stresses equally spaced between 0 and the preshear stress to the powder and determining the corresponding shear stresses. A fresh powder sample was again prepared and conditioned to a similar steady state as that for the just obtained yield locus. […] The change in the shear stress obtained after this new conditioned state was determined and that represents the time consolidation behavior of the powder. […]
# [4] = Relative stability of crystalline forms; details: comparison among crystalline forms identified
Initial Density [1] [g/mL],Density results (Table 21 and FIG. 21) compared with the product of Route D (E12) [1],Powder flow (flow function curve: unconfined yield strength vs major principal stress) compared with a product of Route D (E12) [2],Compound,Time consolidation effect (unconfined yield strength gained on storage) [3],Stability of the crystalline form relative to other forms [4]
0.254,,,"Cl.NC(=O)[C@@H]1CC[C@H](c2ccc(OCc3ccccc3F)cc2)N1 [Example E12, (5R)-5-(4-{[(2-Fluorophenyl)methyl]oxy}phenyl)-L-prolinamide Hydrochloride (Anhydrous; Route D)]",,
0.565,far superior,better,"Cl.NC(=O)[C@@H]1CC[C@H](c2ccc(OCc3ccccc3F)cc2)N1 [Example E13, (5R)-5-(4-{[(2-Fluorophenyl)methyl]oxy}phenyl)-L-prolinamide Hydrochloride (Anhydrous; Route E)]",,
0.512,far superior,better,"Cl.NC(=O)[C@@H]1CC[C@H](c2ccc(OCc3ccccc3F)cc2)N1 [Example E14, (5R)-5-(4-{[(2-Fluorophenyl)methyl]oxy}phenyl)-L-prolinamide Hydrochloride (Anhydrous; Route F)]",does not exhibit as much of a consolidation effect as the product of Route E (E13),
,,,"Cl.NC(=O)[C@@H]1CC[C@H](c2ccc(OCc3ccccc3F)cc2)N1 [Form 1, (5R)-5-(4-{[(2-Fluorophenyl)methyl]oxy}phenyl)-L-prolinamide Hydrochloride Form 1 (Anhydrous A)]",,most stable crystalline form identified to date
,,,"Cl.NC(=O)[C@@H]1CC[C@H](c2ccc(OCc3ccccc3F)cc2)N1 [Form 9, (5R)-5-(4-{[(2-Fluorophenyl)methyl]oxy}phenyl)-L-prolinamide Hydrochloride Form 9 (Anhydrous B)]",,less stable than Anhydrous Form A (Form 1)
,,,"Cl.NC(=O)[C@@H]1CC[C@H](c2ccc(OCc3ccccc3F)cc2)N1 [Form 10, (5R)-5-(4-{[(2-Fluorophenyl)methyl]oxy}phenyl)-L-prolinamide Hydrochloride Form 10 (Anhydrous C)]",,less stable than Anhydrous Form A (Form 1)
